Test results as given in ChEMBL document CHEMBL4706566, “New drug approvals for 2019: Synthesis and clinical applications” (Eur J Med Chem, 2020).

Key:
[1] = clinical; settings: human
[2] = biological target: 5-hydroxytryptamine receptor 2A (Homo sapiens, UniProt P28223)
Description: Antagonist activity at 5HT2A receptor (unknown origin)

[3] = biological target: T1, D(2) dopamine receptor (Homo sapiens, UniProt P14416)
Description: Antagonist activity at postsynaptic D2 receptor (unknown origin)

[4] = biological target: T1, D(2) dopamine receptor; remark: listed apart in the source
Description: Partial agonist activity at presynaptic D2 receptor (unknown origin)

T1 sequence (P14416 whole entry): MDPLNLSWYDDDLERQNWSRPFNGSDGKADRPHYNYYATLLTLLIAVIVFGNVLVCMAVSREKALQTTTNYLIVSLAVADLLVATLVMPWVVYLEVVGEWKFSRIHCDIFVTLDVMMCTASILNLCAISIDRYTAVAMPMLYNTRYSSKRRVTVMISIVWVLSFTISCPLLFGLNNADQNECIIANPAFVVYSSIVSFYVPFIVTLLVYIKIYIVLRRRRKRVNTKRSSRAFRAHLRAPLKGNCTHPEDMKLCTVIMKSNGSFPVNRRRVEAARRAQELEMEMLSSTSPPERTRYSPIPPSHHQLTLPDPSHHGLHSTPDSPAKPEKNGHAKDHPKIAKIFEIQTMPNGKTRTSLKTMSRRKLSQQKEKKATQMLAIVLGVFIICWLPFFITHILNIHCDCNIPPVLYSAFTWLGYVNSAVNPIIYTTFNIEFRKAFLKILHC
Chain of 5-hydroxytryptamine receptor 2A (P28223 whole entry): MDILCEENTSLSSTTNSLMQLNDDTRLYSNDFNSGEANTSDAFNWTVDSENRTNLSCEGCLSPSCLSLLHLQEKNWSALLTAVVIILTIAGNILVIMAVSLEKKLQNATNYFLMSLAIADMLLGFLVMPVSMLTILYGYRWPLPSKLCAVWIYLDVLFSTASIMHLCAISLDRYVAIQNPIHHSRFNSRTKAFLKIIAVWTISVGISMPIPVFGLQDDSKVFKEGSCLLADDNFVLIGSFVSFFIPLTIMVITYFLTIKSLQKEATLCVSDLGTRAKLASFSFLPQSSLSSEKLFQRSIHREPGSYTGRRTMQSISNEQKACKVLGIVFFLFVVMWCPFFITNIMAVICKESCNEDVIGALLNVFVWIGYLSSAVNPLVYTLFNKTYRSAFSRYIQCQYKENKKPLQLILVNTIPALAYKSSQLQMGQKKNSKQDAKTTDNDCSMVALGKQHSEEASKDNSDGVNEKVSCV

half-life [1] [h]	IC50 [2] [nM]	IC50 [3] [nM]	IC50 [4] [nM]	SMILES
64				CCn1c(=O)c2c(nc(/C=C/c3ccc(OC)c(OC)c3)n2C)n(CC)c1=O [ISTRADEFYLLINE]
	0.54	3.2	4.1	CN1CCN2c3c(cccc31)[C@@H]1CN(CCCC(=O)c3ccc(F)cc3)CC[C@@H]12 [LUMATEPERONE]
